The values below are quoted from earlier work in US20140178456A1, “METHODS AND COMPOSITIONS FOR TREATING TYPE 2 DIABETES AND RELATED CONDITIONS” (priority 2012, published 2014).

Structures can show the parent of a compound that is named as a salt.

Turning to `CN(CCOc1ccc(CC2SC(=O)NC2=O)cc1)c1ccccn1` (centres unmarked) [rosiglitazone maleate], for the setting “oral administration of 8 mg rosiglitazone maleate”, the peak plasma concentration result is “about 46114 per liter”. With `CCc1ccc(CCOc2ccc(CC3SC(=O)NC3=O)cc2)nc1` (centres unmarked) [pioglitazone], the “peak plasma concentration of pioglitazone and its active metabolites” value (oral administration of 30 mg pioglitazone) is “about 146 μg per liter”.
